Measured values from PMC6145916, “Interaction of mitochondrial fission factor with dynamin related protein 1 governs physiological mitochondrial function in vivo” (Scientific Reports, 2018).
Where no end group is shown, it is not given here.

Key:
[1] = tested on: wild-type MEFs; assay: Mitochondrial membrane potential (TMRM), WT MEFs; format: cell-based, mouse; details: 20 µM P259 overnight, vs no peptide; 3 independent experiments, three technical replicates; ** p <0.01
Experimental: Data are of 3 independent experiments with the whiskers calculated by the Turkey method. e. […]
determined by an unpaired, two -tailed t test). g. […]
control (no peptide treatment). Data are mean ± s.e. from 3 independent experiments. […]
(§1) and without phenol red. […] After incubation
(§2) HEPES, and without phenol red. […]
epifluorescence microscope with a 10X objective (Keyence). The Cy5 filter (Keyence) was used to autofocus on the mitochondria plane. […]
Mitochondrial membrane potential determination
After treatment, cells were washed with
Cells were incubated in a 37
°C incubator for 30 minutes. […]

[2] = tested on: Drp1 with Fis1/Mid49/Mid51; assay: Co-immunoprecipitation of recombinant Drp1 with the other adaptors; format: binding; details: 1 µM P259, 2 hours at 4 °C, 200 ng Drp1, 200 ng adaptor, RIPA buffer; representative blot of two independent experiments
[3] = tested on: fission and fusion proteins; assay: Expression of fission and fusion proteins, mitochondrial content and mitophagy in brain of wild-type mice; format: in vivo, mouse; details: 3 mg/Kg/day, subcutaneous osmotic pump, 8 weeks, WT mice
Experimental: Five-week old R6/2 HD mice and their wild-type littermates (a total of 60 mice) were implanted subcutaneously with a 28-d Alzet osmotic pump with either P259-TAT or TAT control peptide (15 mice per group) to be delivered continuously at a rate of 3 mg/Kg/day, as previously described. All mice were implanted twice for a total of an 8-week treatment. 20 of the WT mice were implanted 3 times for a total of a 12-week treatment at 3 mg/Kg/day. All the experiments were in accordance with protocols approved by the Institutional Animal Care and Use Committee of Stanford University and were performed based on the National Institutes of Health Guide for the Care and Use of Laboratory Animals. All methods were carried out in accordance with the relevant guidelines and regulations. […]
membrane in brains of wild-type mice, while not affecting expression levels of other fission and fusion machinery proteins. Total lysate (a,c) and mitochondrial fraction (b) from brain […]
Represented western blots are cropped from full blots shown in the Expanded Western Blots section of the Supplementary Information. […]
Supplementary Figure 4. Principal component analysis of behaviors from wild-type mice treated with P259. a. The top 20% of behaviors collected from wild-type mice treated with 3 […]
ANOVA F- and mutual information scores for each behavior (week designation corresponds to mouse age when the behavior was observed). b. The eigenvector of the first principal component, representing 42% of the variation of the data. […]
finally washed three times with RIPA buffer. Finally, beads were resuspended in 20 µL of Laemmli […]
The effect of peptides on GTPase activity of Drp1 was measured by incubating recombinant Drp1 […]
for 1 hour at 37 °C. GTPase activity was measured using a colorimetric GTPase assay kit (Novus Biologicals, CO, USA) as instructed by the manufacturer. […]

[4] = tested on: primary cortical neurons; assay: Mitochondrial ROS (MitoSox Red), primary cortical neurons; format: cell-based, rat; details: overnight treatment; n = 3, with 3 replicates
Experimental: Bottom, quantification of the form factor (degree of branching) and aspect ratio (major/minor axis length). At least 10,000 mitochondrial fragments were analyzed for each condition. Mitochondrial reactive oxygen species production (MitoSox Red) (b) and membrane potential (TMRM) (c) after overnight treatment with indicated concentrations of peptide (n = 3, with 3 replicates). […] Overlay of live microscopy imaging at time 0 (green) and 150 (red) seconds. […] An estimation of the % mobile mitochondria from the Pearson coefficient of each set of images. Data are mean ± s.e.
Following treatment, cells were washed with treatment media.
The Cy5 filter was used to autofocus on the mitochondria plane. Nuclei were imaged with a DAPI filter and the mitoROS (MitoSox) or membrane potential (TMRM) image was acquired with a TRITC filter. […] MitoROS was calculated as the average MitoSox signal per cell. The mitochondrial membrane potential was calculated as the average TMRM signal in the mitochondrial mask.
Mitochondrial reactive oxygen species determination […]
and 1% penicillin-streptomycin solution (Corning, NY, USA). Primary cortical neurons were treated with increasing concentrations of peptides in NbActiv1 media. HD Patient- and adult- […]
as §1, §2
calculated as the average MitoSox signal per cell. […]

[5] = tested on: Mff-Drp1 interaction; assay: Co-immunoprecipitation of Drp1 and Mff from SH-SY5Y cell lysate; format: cell-based, human; details: 1 µM, 1 hour, relative to TAT-carrier control; n = 3, with 2 replicates
[6] = tested on: SH-SY5Y cells; assay: Oxygen consumption rate, SH-SY5Y; format: cell-based, human; details: overnight treatment, XFe24 analyzer

YGRKKRRQRRRGSGIIQLPEIVVV-NH2 (C-terminus assumed) [P259]
mitochondrial membrane potential, WT MEFs [1]: decreases
binding of other receptors (Fis1, Mid49, Mid51) to co-immunoprecipitated recombinant Drp1 [2]: without affecting the binding of any other receptor
expression levels of both fission and fusion proteins [3]: no effect
mitophagy [3]: no effect
overall mitochondrial content [3]: no effect
mitochondrial ROS [4]: increased mitochondrial ROS
Mff-Drp1 interactions (co-IP) [5]: significant reduction in Mff-Drp1 interactions
electron flux (electron transport chain flux) ([6]; 4 µM (Fig. 2f), n = 3, with at least 3 replicates): dose-dependent decline
basal oxygen consumption rate ([6]; indicated concentrations, 3 independent experiments): dose-dependent decline
